Test results taken from patent publication US10307463B2 (priority 2003, dated 2019).

What was measured:
[1] = system: gross behavioral and cardiovascular effects; conditions: rat, in vivo
GI transit = conditions: rat, in vivo
[2] = system: respiratory minute volume responses to CO2; conditions: rat, in vivo
rats = conditions: rat, in vivo
in vivo [3] = conditions: dog
in vivo [4] = conditions: rat
[5] = pH 4
dogs = conditions: dog, in vivo

Q: What does the source list for `CSCC[C@@H]1NC(=O)[C@H](CC(C)C)NC(=O)[C@H](CCCNC(=N)N)NC(=O)[C@H](CO)NC(=O)[C@@H]2CSSC[C@@H]3NC(=O)[C@H](CO)NC(=O)CNC(=O)[C@H]([C@@H](C)O)NC(=O)[C@H](CSSC[C@H](N)C(=O)N[C@@H](CCCCN)C(=O)NCC(=O)N[C@@H](CCCCN)C(=O)NCC(=O)N[C@@H](C)C(=O)N[C@@H](CCCCN)C(=O)N2)NC(=O)[C@H](CSSC[C@@H](C(N)=O)NC(=O)[C@H](CCCCN)NC(=O)CNC(=O)[C@H](CO)NC(=O)[C@H](CCCNC(=N)N)NC3=O)NC(=O)[C@H](CC(=O)O)NC(=O)[C@H](Cc2ccc(O)cc2)NC1=O` [ziconotide]?
A: gross behavioral and cardiovascular effects [1]: well tolerated; GI transit (GI transit): does not itself affect GI tract motility; respiratory depression, subacute administration [2]: did not induce respiratory depression; respiratory minute volume responses to CO2 / acute respiratory depression [2]: did not depress; body weight, food intake or clinical pathology parameters (rats): no treatment-related changes; mean plasma drug level relative to human (rats): approximately 3 fold; target organ toxicity at termination (rats): nor was any target organ toxicity identified; level at 672 h (in vivo [3]): < 4 ng/mL; level at 672 h (in vivo [4]): < 4 ng/mL; stability in solution [5]: stable at 45 °C for weeks; body weight, food intake or clinical pathology parameters (dogs): no treatment-related changes; granuloma formation at the catheter tip (dogs): no granuloma formation; mean plasma drug level relative to human (dogs): ~10 fold; moribund euthanasia due to CNS effects (tremors, shaking-behavior, ataxia) (dogs): 4/16; target organ toxicity at termination (dogs): nor was any target organ toxicity identified
